Laboratory results reported in patent US12435072B2, “Compounds” (Vicore Pharma AB, priority 2019, dated 2025).

Tests used:
[1] = biological target: T1, human recombinant AT2 receptor (Homo sapiens, UniProt P50052); test: Binding to AT2 receptor, radiometric scintillation assay (Eurofins); conditions: ligand 125I CGP 42112A, tested at 1, 10, 100 and 1000 nM
T1 construct: purchased Eurofins ITEM26
T1 sequence (P50052 1-363): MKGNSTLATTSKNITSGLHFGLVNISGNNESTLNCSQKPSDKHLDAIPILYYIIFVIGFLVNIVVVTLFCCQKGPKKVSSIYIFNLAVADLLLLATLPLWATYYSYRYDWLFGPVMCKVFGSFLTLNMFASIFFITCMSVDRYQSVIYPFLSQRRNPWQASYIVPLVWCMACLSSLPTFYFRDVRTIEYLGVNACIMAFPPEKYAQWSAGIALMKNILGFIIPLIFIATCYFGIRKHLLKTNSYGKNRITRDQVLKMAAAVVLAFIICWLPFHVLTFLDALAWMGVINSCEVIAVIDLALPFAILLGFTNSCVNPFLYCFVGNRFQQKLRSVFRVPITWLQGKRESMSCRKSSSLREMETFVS
Protocol: (§1) Compounds were evaluated for binding to the human recombinant AT2 and AT1 receptor according to Eurofins protocol ITEM26 and ITEM24 using a radiometric scintillation assay.

[2] = biological target: T2, human recombinant AT1 receptor (Homo sapiens, UniProt P30556); test: Binding to AT1 receptor, radiometric scintillation assay (Eurofins); conditions: ligand 125I(sar1,Ile8)-AT-II, tested at 1 and 10 μM
T2 construct: purchased Eurofins ITEM24
T2 sequence (P30556 1-359): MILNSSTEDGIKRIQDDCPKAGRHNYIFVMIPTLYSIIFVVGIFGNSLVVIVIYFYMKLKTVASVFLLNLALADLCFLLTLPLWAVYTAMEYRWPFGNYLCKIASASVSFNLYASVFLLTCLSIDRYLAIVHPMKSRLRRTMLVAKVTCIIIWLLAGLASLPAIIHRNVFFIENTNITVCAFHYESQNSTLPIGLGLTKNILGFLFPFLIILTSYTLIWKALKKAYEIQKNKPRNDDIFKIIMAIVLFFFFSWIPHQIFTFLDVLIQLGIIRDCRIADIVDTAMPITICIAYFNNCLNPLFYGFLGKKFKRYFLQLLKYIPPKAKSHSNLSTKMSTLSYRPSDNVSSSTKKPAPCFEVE
Protocol: as §1

CYP2C19 = biological target: T3, CYP2C19 (Homo sapiens, UniProt P33261); test: CYP inhibition in human liver microsomes, CYP2C19; type: in vitro ADME; conditions: substrate omeprazole; for inhibition at 10 µM: probe omeprazole, read-out: CYP2C19 Inh %
T3 construct: incubated with human liver microsomes; tissue Eurofins ITEMG232; host or cells: human liver microsomes
Protocol: (§2) The following substrates were used: CYP1A phenacetin, CYP2B6 bupropion, CYP2C8 paclitaxel and amodiaquine, CYP2C9 diclofenac, CYP2C19 omeprazole, CYP2D6 dextromethorphan, CYP3A midazolam and testosterone. At the end of the incubation, the formation of metabolite was monitored by HPLC-MS/MS as the peak area response.

CYP2C9 [3] = biological target: T4, CYP2C9 (Homo sapiens, UniProt P11712); test: CYP inhibition found during development of C21, CYP 2C9; type: in vitro ADME; conditions: statement in background
CYP3A4 [4] = biological target: T5, CYP3A4 (Homo sapiens, UniProt P08684); test: CYP inhibition found during development of C21, CYP 3A4; type: in vitro ADME; conditions: statement in background
[5] = Metabolic hydrolysis found during development of C21; type: in vitro ADME; conditions: statement in background
CYP2C9 [6] = biological target: T4, CYP2C9; test: CYP inhibition in human liver microsomes, CYP2C9; type: in vitro ADME; parameters: incubated with human liver microsomes; tissue Eurofins ITEMG232; host or cells: human liver microsomes; conditions: substrate diclofenac; for inhibition at 10 µM: probe diclofenac, read-out: CYP2C9 Inh %
Protocol: as §2

CYP1A = biological target: T6, CYP1A (Homo sapiens, UniProt P05177); test: CYP inhibition in human liver microsomes, CYP1A; type: in vitro ADME; conditions: probe phenacetin, substrate phenacetin, read-out: CYP1A Inh %
T6 construct: incubated with human liver microsomes; tissue Eurofins ITEMG232; host or cells: human liver microsomes
T6 sequence (P05177 1-516): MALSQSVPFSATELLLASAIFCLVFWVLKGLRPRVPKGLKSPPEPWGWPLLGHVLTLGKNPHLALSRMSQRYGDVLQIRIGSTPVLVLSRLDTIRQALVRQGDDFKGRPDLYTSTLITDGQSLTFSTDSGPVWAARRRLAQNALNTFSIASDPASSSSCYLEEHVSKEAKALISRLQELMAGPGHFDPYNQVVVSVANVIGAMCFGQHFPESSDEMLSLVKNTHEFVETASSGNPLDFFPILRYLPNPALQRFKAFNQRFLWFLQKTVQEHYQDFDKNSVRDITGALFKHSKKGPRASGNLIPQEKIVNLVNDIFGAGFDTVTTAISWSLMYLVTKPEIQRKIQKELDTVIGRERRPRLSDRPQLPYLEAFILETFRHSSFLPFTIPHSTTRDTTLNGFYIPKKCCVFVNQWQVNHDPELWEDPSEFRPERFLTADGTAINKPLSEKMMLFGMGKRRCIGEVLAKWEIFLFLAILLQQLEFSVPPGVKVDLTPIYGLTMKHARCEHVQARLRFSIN
Protocol: as §2

CYP2B6 = biological target: T7, CYP2B6 (Homo sapiens, UniProt P20813); test: CYP inhibition in human liver microsomes, CYP2B6; type: in vitro ADME; conditions: probe bupropion, substrate bupropion, read-out: CYP2B6 Inh %
T7 construct: incubated with human liver microsomes; tissue Eurofins ITEMG232; host or cells: human liver microsomes
T7 sequence (P20813 1-491): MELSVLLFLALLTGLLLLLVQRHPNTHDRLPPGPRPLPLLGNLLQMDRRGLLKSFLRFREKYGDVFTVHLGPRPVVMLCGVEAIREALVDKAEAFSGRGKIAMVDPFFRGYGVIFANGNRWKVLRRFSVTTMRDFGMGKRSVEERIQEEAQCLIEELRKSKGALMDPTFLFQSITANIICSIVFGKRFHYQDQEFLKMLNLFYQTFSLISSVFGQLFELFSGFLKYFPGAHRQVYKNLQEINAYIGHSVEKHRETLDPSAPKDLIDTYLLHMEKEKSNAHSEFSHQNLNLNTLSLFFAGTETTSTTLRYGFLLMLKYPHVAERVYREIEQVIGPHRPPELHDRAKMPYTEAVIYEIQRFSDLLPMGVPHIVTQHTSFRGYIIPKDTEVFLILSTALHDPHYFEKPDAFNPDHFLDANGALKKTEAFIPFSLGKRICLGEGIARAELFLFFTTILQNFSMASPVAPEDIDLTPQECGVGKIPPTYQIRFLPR
Protocol: as §2

CYP2C8 = biological target: T8, CYP2C8 (Homo sapiens, UniProt P10632); test: CYP inhibition in human liver microsomes, CYP2C8; type: in vitro ADME; conditions: probe paclitaxel and amodiaquine, substrate paclitaxel and amodiaquine, read-out: CYP2C8 Inh %
T8 construct: incubated with human liver microsomes; tissue Eurofins ITEMG232; host or cells: human liver microsomes
T8 sequence (P10632 1-490): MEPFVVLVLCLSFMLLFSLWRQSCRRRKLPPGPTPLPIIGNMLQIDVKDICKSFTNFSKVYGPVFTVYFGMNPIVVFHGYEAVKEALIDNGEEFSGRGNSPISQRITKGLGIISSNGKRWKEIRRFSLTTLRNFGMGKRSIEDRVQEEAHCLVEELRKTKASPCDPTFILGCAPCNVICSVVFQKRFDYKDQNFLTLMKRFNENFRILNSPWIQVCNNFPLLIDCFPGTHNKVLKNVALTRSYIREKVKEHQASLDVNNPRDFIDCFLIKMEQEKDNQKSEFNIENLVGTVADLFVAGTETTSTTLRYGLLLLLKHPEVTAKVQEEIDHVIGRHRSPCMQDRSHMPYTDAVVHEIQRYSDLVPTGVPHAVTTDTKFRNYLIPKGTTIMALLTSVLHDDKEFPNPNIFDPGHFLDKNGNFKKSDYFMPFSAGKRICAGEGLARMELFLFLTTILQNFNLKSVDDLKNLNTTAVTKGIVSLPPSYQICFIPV
Protocol: as §2

CYP2D6 = biological target: T9, CYP2D6 (Homo sapiens, UniProt P10635); test: CYP inhibition in human liver microsomes, CYP2D6; type: in vitro ADME; conditions: probe dextromethorphan, substrate dextromethorphan, read-out: CYP2D6 Inh %
T9 construct: incubated with human liver microsomes; tissue Eurofins ITEMG232; host or cells: human liver microsomes
Protocol: as §2

CYP3A4&5 = test: CYP inhibition in human liver microsomes, CYP3A4&5 (testosterone); type: in vitro ADME; conditions: probe testosterone, substrate testosterone, read-out: CYP3A4&5 testosterone Inh %
Protocol: as §2

CYP3A4 [7] = biological target: T5, CYP3A4; test: CYP inhibition in human liver microsomes, CYP3A4 (midazolam); type: in vitro ADME; parameters: incubated with human liver microsomes; tissue Eurofins ITEMG232; host or cells: human liver microsomes; conditions: probe midazolam, substrate midazolam, read-out: CYP3A4 midazolam Inh %
Protocol: as §2

T5 sequence (P08684 whole entry): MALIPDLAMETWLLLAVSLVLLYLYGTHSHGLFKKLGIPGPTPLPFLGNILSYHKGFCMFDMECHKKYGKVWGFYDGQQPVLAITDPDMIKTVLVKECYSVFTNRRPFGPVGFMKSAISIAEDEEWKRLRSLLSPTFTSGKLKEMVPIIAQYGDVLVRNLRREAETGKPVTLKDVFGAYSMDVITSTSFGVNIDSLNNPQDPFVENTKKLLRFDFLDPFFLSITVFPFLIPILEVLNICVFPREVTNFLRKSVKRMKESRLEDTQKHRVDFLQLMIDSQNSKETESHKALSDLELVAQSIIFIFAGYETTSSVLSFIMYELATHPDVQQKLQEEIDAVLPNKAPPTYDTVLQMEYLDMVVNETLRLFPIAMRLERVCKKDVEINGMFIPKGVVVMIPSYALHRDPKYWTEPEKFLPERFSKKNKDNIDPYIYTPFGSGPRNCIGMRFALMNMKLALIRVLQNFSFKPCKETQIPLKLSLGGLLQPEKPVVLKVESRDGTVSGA
T4 sequence (P11712 whole entry): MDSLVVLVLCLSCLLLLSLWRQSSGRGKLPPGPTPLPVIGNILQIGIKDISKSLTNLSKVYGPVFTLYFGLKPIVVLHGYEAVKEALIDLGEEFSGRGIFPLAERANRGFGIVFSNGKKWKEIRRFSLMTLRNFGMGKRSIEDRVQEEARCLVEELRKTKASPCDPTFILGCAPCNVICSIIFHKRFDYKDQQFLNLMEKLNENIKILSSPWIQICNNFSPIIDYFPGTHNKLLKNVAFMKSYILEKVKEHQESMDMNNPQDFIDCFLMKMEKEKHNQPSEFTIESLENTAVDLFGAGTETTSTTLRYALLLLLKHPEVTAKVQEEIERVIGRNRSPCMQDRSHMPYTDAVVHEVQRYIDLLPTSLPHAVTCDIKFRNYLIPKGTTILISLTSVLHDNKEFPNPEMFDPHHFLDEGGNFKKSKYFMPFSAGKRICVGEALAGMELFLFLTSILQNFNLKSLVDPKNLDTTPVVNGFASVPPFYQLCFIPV
T3 sequence (P33261 whole entry): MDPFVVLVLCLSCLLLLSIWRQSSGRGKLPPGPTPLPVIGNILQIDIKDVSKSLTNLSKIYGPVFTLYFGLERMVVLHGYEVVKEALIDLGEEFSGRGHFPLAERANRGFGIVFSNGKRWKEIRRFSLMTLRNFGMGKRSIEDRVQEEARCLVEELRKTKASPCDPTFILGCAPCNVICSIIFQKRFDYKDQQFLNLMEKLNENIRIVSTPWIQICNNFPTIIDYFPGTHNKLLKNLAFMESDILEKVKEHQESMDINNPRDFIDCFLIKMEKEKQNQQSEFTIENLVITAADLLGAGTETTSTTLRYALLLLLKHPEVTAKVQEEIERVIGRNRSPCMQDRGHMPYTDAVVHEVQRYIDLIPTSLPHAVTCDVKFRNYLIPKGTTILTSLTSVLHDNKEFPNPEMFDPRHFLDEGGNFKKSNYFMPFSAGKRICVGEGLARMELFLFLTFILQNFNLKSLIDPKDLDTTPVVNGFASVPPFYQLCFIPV
T9 sequence (P10635 whole entry): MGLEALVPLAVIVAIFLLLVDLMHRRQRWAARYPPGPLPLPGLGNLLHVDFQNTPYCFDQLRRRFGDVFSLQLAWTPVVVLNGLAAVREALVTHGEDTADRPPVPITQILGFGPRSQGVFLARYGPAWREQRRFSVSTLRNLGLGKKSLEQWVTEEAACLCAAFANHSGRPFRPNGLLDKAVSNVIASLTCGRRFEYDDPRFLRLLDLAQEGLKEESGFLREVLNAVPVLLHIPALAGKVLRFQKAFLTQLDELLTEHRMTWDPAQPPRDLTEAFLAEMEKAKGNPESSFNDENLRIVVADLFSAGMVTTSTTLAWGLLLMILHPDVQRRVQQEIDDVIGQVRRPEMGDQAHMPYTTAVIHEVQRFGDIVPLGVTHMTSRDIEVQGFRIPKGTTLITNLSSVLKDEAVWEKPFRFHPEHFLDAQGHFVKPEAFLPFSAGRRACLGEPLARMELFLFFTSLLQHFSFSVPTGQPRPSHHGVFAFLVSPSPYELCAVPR

SMILES | IC50 [1] | IC50 [2] | CYP2C19 Inh % (CYP2C19; 10 μM) | inhibition of CYP 2C9 (CYP2C9 [3]) | inhibition of CYP 3A4 (CYP3A4 [4]) | CYP2C9 Inh % (CYP2C9 [6]; 10 μM) | inhibition at 10 µM (CYP1A) | inhibition at 10 µM (CYP2B6) | inhibition at 10 µM (CYP2C19) | inhibition at 10 µM (CYP2C8) | inhibition at 10 µM (CYP2D6) | inhibition at 10 µM (CYP3A4&5) | inhibition at 10 µM (CYP2C9 [6]) | inhibition at 10 µM (CYP3A4 [7]) | metabolic hydrolysis [5]
Cc1cn(Cc2ccc(-c3cc(CC(C)C)sc3S(=O)(=O)NC(=O)NCc3ccccc3)cc2)c(C)n1 [Example 10, 1-Benzyl-3-(3-{p-[(2,4-dimethyl-1H-imidazol-1-yl)methyl]phenyl}-5-isobutyl-2-thienylsulfonyl)urea] | 90.6 nM | 6000 nM |  |  |  |  | -5% | 15% | 61% | 48% | 31% | 29% | 50% | 25% | 
Cc1cn(Cc2ccc(-c3cc(CC(C)C)sc3S(=O)(=O)NC(=O)NCc3ccccn3)cc2)c(C)n1 [Example 11, 3-(3-{p-[(2,4-Dimethyl-1H-imidazol-1-yl)methyl]phenyl}-5-isobutyl-2-thienylsulfonyl)-1-[(2-pyridyl)methyl]urea] | 119 nM | 18000 nM |  |  |  |  | 5% | 14% | 53% | 34% | 44% | 17% | 29% | 22% | 
Cc1nccn1Cc1ccc(-c2cc(CC(C)C)sc2S(=O)(=O)NC(=O)N(C)Cc2ccccn2)cc1F [Example 17, 3-(3-{3-Fluoro-4-[(2-methyl-1H-imidazol-1-yl)methyl]phenyl}-5-isobutyl-2-thienylsulfonyl)-1-methyl-1-[(2-pyridyl)methyl]urea] | 9.5 nM | 58000 nM |  |  |  |  | 29% | 20% | 54% | 83% | 22% | 18% | 48% | 65% | 

Continued, in another order:

IC50 [1] | IC50 [2] | CYP2C19 Inh % (CYP2C19; 10 μM) | inhibition of CYP 2C9 (CYP2C9 [3]) | inhibition of CYP 3A4 (CYP3A4 [4]) | CYP2C9 Inh % (CYP2C9 [6]; 10 μM) | inhibition at 10 µM (CYP1A) | inhibition at 10 µM (CYP2B6) | inhibition at 10 µM (CYP2C19) | inhibition at 10 µM (CYP2C8) | inhibition at 10 µM (CYP2D6) | inhibition at 10 µM (CYP3A4&5) | inhibition at 10 µM (CYP2C9 [6]) | inhibition at 10 µM (CYP3A4 [7]) | SMILES | metabolic hydrolysis [5]
127 nM | 83000 nM |  |  |  |  |  |  |  |  |  |  |  |  | Cc1nccn1Cc1ccc(-c2cc(CC(C)C)sc2S(=O)(=O)NC(=O)NCCC(F)(F)F)nc1 [Example 19, 3-(5-Isobutyl-3-{5-[(2-methyl-1H-imidazol-1-yl)methyl]-2-pyridyl}-2-thienylsulfonyl)-1-(3,3,3-trifluoropropyl)urea] | 
 |  | 96.0% | potent inhibitor | potent inhibitor | 99.0% |  |  |  |  |  |  |  |  | CCCCOC(=O)NS(=O)(=O)c1sc(CC(C)C)cc1-c1ccc(Cn2ccnc2)cc1 [Example C21, N-butyloxycarbonyl-3-(4-imidazol-1-ylmethylphenyl)-5-isobutylthiophene-2-sulfon-amide] | rapidly hydrolysed to an inactive sulfonamide metabolite
2.9 nM | 5000 nM |  |  |  |  |  |  |  |  |  |  |  |  | CC(C)Cc1cc(-c2ccc(Cn3ccnc3C(C)C)c(F)c2)c(S(=O)(=O)NC(=O)NCCCC(F)(F)F)s1 [Example 42, 1-{[3-(3-fluoro-4-{[2-(propan-2-yl)-1H-imidazol-1-yl]methyl}phenyl)-5-(2-methylpropyl)thiophen-2-yl]sulfonyl}-3-(4,4,4-trifluorobutyl)urea trifluoroacetic acid] | 
7.4 nM | 57000 nM |  |  |  |  | 23% | 88% | 91% | 65% | 88% | 58% | 79% | 91% | Cc1nccn1Cc1ccc(-c2cc(CC(C)C)sc2S(=O)(=O)NC(=O)NCCc2c[nH]cn2)cc1F [Example 16, 1-(3-{3-Fluoro-4-[(2-methyl-1H-imidazol-1-yl)methyl]phenyl}-5-isobutyl-2-thienylsulfonyl)-3-[2-(1H-imidazol-4-yl)ethyl]urea] | 
16.9 nM | 51000 nM |  |  |  |  |  |  |  |  |  |  |  |  | Cc1nccn1Cc1ncc(-c2cc(CC(C)C)sc2S(=O)(=O)NC(=O)NCc2ccccn2)cn1 [Example 22, 3-(5-Isobutyl-3-{2-[(2-methyl-1H-imidazol-1-yl)methyl]-5-pyrimidinyl}-2-thienylsulfonyl)-1-[(2-pyridyl)methyl]urea] | 
